Common to all, as to assay: growth of human tumour cells (NCI), 48 h
Test [1] relates to CCRF-CEM leukemia.
For test [2], the system named is IGROV1 ovarian.
The subject of test [3] is M14 melanoma.
Test [4] relates to MCF7 breast.
Test [5] deals with MDA-MB-435.
In test [6] the test system is MOLT-4 leukemia.
In test [7] the test system is OVCAR-3 ovarian.
Test [8] relates to U251 CNS.
Test [9] has as its system UO-31 renal.
For test [10], the system named is MALME-3M melanoma.
Test [11] deals with ACHN renal.

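Five concentrations, 48 hours, 96-well plates. The concentration for 50% growth inhibition is given as GI50. TGI: total growth inhibition.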

As for `CCOc1ncn(-c2ccc(NC(=S)Nc3cccc(O)c3)cc2)n1`, the TGI in test [1], in [2], in test [3], in [4], in test [5] and in test [6] was over 100 µM in each case. The TGI in test [7], in test [8] and in test [9] was over 100 µM in each case.
With `COc1ccc(C(=O)C2CC3(CCC2(O)c2ccc(OC)cc2)CC(=O)Nc2ccccc2C3=O)cc1` (configuration not stated), the TGI in test [1], in test [2], in [3], in test [10], in test [4] and in [5] was over 100 µM throughout. For the same compound, the TGI in [7], in test [8] and in test [9] was over 100 µM in each case.
Take `CO/C(=N\N=C(/C)C(F)(F)F)c1ccncc1`: the TGI in test [1], in [2], in test [3], in [10], in test [4] and in test [5] was over 100 µM in each case. For the same compound, the TGI in test [6], in test [7], in [8] and in test [9] was over 100 µM throughout.
In the case of `COC[C@H]1C(=O)NCC(=O)N2NCCC[C@H]2C(=O)N(O)[C@H](C)C(=O)O[C@@H](C(C)C)[C@H](NC(=O)[C@](C)(O)[C@]2(O)CC[C@@H](CC(C)C)[C@H](C)O2)C(=O)N2NCCC[C@@H]2C(=O)N1O`, the GI50 is 0.0168 µM in test [11]; 0.0142 µM in test [10]; under 0.01 µM in test [5]; under 0.01 µM in test [6]; under 0.01 µM in test [8]; 0.0192 µM in [9]. In addition, the TGI worked out at 0.0307 µM in test [11]; 0.0291 µM in [10]; 0.0128 µM in test [5]; 0.0464 µM in test [6]; 0.0216 µM in [8]; 0.0458 µM in [9].
For the compound `ClCCN(CCCl)Cc1ccc(Nc2ccnc3cc(Cl)ccc23)cc1`, the GI50 in test [11] is 0.548 µM; in test [1] it was 0.265 µM; in test [4] it was 0.588 µM; in [6], 0.416 µM. The TGI in [11] is over 100 µM; in [1], 2.99 µM; in test [4], 9.34 µM; in test [6] it was 2.78 µM.
In the case of `COc1ccc2c(O)c3[n+](cc2c1OC)CCc1cc2c(cc1-3)OCO2`, the TGI is over 100 µM in test [11]; over 100 µM in [1]; over 100 µM in test [2]; over 100 µM in test [3]; over 100 µM in [4]; 69.3 µM in test [5]. The TGI in test [6], in [7] and in test [8] was over 100 µM throughout.

These data come from PubChem BioAssay (NCI).
